Experimental data taken from US12503440B2, “Nitroxoline derivative, preparation method therefor, and use thereof” (Jiangsu Yahong Meditech Co., Ltd., priority 2020, dated 2025).
Converted amounts (≈) assume the structure as drawn.

How the values were obtained:
Format in all cases: cell-based
Escherichia coli = assay: Bacteriostatic activity, micro broth dilution MIC (CLSI); settings: 20 hours; for MIC50 / MIC90: clinical strains (carbapenem-resistant), CAMHB; for MIC50: read-out: Escherichia coli Clinical strain MIC50; for MIC90: read-out: Escherichia coli Clinical strain MIC90; for MIC: standard strain ATCC25922, CAMHB
Experimental: (§1) The purpose of this test is to determine the bacteriostatic activity of the compounds of the present invention against a representative panel of strains (Gram-negative bacteria: […] ATCC 25922, Acinetobacter baumannii ATCC 19606; Gram-positive bacteria: Staphylococcus aureus ATCC29213). Bacteriostatic activity was determined by minimum inhibitory concentration (MIC), MIC50, MIC90. This test was entrusted to Shanghai Junj Lab Co., Ltd. Except for the test drugs, all other test materials were provided by Shanghai Junj Lab Co., Ltd.
(§2) The tested bacteria were several strains of clinically isolated carbapenem-resistant Escherichia coli, several strains of carbapenem-resistant Acinetobacter baumannii, several strains of methicillin-resistant Staphylococcus aureus, and several strains of sensitive Staphylococcus aureus. Duplicate strains isolated from the same patient were eliminated. There were also three quality control strains Escherichia coli ATCC 25922, Acinetobacter baumannii ATCC 19606, and Staphylococcus aureus ATCC 29213. The activity test of each compound was carried out on one or more strains of each of the above test bacteria.
(§3) According to the recommendations of relevant documents of the American Clinical and Laboratory Standards Institute (CLSI), the micro broth dilution method was used to determine the MIC of the compounds of the present invention against clinically isolated strains. The culture solution free of drug was used as the test bacteria positive control, the culture solution free of bacterial solution was used as the drug negative control, and the culture solution free of drug solution and bacterial solution was used as the blank control. • 4.1 Formulation of antibacterial drug: All the compounds of the present invention were dissolved in DMSO. The drug concentration range was 128 mg/L-0.06 mg/L. Specific method: The compounds of the present invention were successively diluted by 1:1 with DMSO to obtain an intermediate series with a range of 25600 mg/L-12.5 mg/L. 30 μL of solution from each tube of the intermediate series of each compound was added to a 3 mL/tube series of single broth tube, and mixed well to obtain an intermediate series with a range of 256 mg/L to 0.125 mg/L. The diluted series solution was added to the drug susceptibility plate line by line, 50 μL of solution per well. All ranges became investigated ranges after being mixed with an equal volume of bacterial solution: 128-0.06 mg/L. • 4.2 Culture medium: The drug susceptibility test used cation adjusted Mueller-Hinton broth (CAMHB). • 4.3 Amount of inoculum: The test bacteria cultured overnight were adjusted to 0.5 McFarland turbidity by the direct colony suspension method, and diluted 100 folds, the final inoculum amount was 10^5 CFU/mL. • 4.4 Culture conditions: The test bacteria were cultured at 35±2° C. for 20 hours in air. 5. Interpretation and Judgment of Results
(§4) The drug susceptibility test results were interpretated by reference to CLSI 2019 edition M100 29th edition criteria.
(§5) The results of drug susceptibility test were statistically analyzed by WHONET version 5.6 software.
(§6) The culture solution free of bacterial solution was used as the drug negative control, and the culture solution free of drug solution and bacterial solution was used as the blank control, wherein no bacteria grew in both solutions.

Staphylococcus aureus = assay: as above; settings: 20 hours; for MIC50 / MIC90: clinical strains (methicillin-resistant and sensitive), CAMHB; for MIC50: read-out: Staphylococcus aureus Clinical strain MIC50; for MIC90: read-out: Staphylococcus aureus Clinical strain MIC90; for MIC: standard strain ATCC29213, CAMHB
Experimental: as §1, §2, §3, §4, §5, §6

Acinetobacter baumannii = assay: as above; settings: 20 hours; for MIC50 / MIC90: clinical strains (carbapenem-resistant), CAMHB; for MIC50: read-out: Acinetobacter baumannii Clinical strain MIC50; for MIC90: read-out: Acinetobacter baumannii Clinical strain MIC90; for MIC: standard strain ATCC19606, CAMHB
Experimental: as §1, §2, §3, §4, §5, §6

[1] = tested on: Bladder cancer cell line UM-UC-3; assay: Inhibitory activity on cancer cells, CellTiter-Glo viability, 72 h; settings: Homo sapiens, UMUC3, UM-UC-3, 72 h
Text: • HUVEC (purchased from Allcells Biological Technology (Shanghai) Co., Ltd.); UM-UC-3 (ATCC); LNCaP Clone FGC (ATCC); RM-1 (purchased from Nanjing Cobioer Biosciences Co., Ltd.) 2. Reagents • Endothelial cell complete medium (Allcells, H-004) • Medium RPMI1640 (ATCC, 30-2001) • Medium EMEM (ATCC, 30-2003) • Medium DMEM (Gibco, 12430-054) • Fetal bovine serum (Gibco, 10091148) • Penicillin-streptomycin double anti-body (Gibco, S110JV) • DPBS (Gibco, 14190-144) • CellTiter-Glo® kit (Promega, G7573) • Trypsin (0.25%), phenol red (Gibco, 25200-056) • DMSO (Sigma, D2650) 3. Instruments • Biological safety cabinet (Suzhou Antai Airtech Co., Ltd., BSC-1300A II) • Inverted microscope (Nikon, CKX53) • Automated cell counter (Life Technologies, countess II) • Multifunctional microplate reader (Biotek, H1FM) • Shaker (Hangzhou Allsheng Instruments Co., Ltd., OS-100) • GraphPad Prism 5.0 software • XLFIT 5.3 (Inforstack Shanghai Co., Ltd.) 4. Test Method
In this test method, the following experiments were carried out in a biological safety cabinet, and the specific steps are as follows: • (1) On the first day, the cells were seeded in a 96-well plate, and the previous medium was poured off. 5 mL of DPBS was added to wash the cells, and then removed by a pipette. Then, 1 mL of trypsin (0.25%) was added, and the plate was placed in a cell culture incubator at 37° C., 5% CO2 for digestion, and taken out after about 2 to 5 minutes. New corresponding medium was added, and pipetted to resuspend the cells evenly, and the cells were then counted with an automated cell counter.
The digestion was observed using an inverted microscope.
Regarding to HUVEC, the medium used was endothelial cell complete medium; regarding to UM-UC-3, the medium used was 89v % EMEM+10v % fetal bovine serum+1 v % penicillin-streptomycin double anti-body; regarding to LNcaP Clone FGC, the medium used was 89v % RPM11640+10v % fetal bovine serum+1 v % penicillin-streptomycin double anti-body; and regarding to RM-1, the medium used was 89v % DMEM+10v % fetal bovine serum+1v % penicillin-streptomycin double anti-body. • (2) HUVEC cells were seeded in columns 1 to 11 of a 96-well plate (Corning, Cat. No. 3610) at a density of 2000 cells per well in 100 μL of medium, and the medium free of cell was added to the wells of column 12. The other three types of cells were also seeded, wherein UM-UC-3 and RM-1 cells were seeded at a density of 3000 cells per well, and LNCap Clone FGC cells were seeded at a density of 5000 cells per well. Then, the plate was placed in an incubator at 37° C., 5% CO2 for 24 hours. • (3) On the second day, the compounds of the present invention and the reference drug nitroxoline (obtained according to the preparation method disclosed in the prior art) were diluted in gradient (2.5 folds, started at 100 μmol) to obtain 8 dose points (there were a total of 8 columns of wells; the first column of wells had the highest concentration, the concentration decreased in turn, and the last column of wells had the lowest concentration). 10 uL of the compound diluted in gradient was added to the 100 μL of cells in column 1 to column 10 with an 8-channel pipette. 10 μL of the corresponding medium containing 0.33v % DMSO was added to column 11 and column 12. The plate was incubated in an incubator at 37° C., 5% CO2 for 72 hours (note: column 11 was used as MAX well with cells and no compounds; and column 12 was used as MIN well with no cells and no compounds). • (4) After treating with the compounds of the present invention for 72 hours, the cell viability detection reagents in the above CellTiter-Glo® kit were added to the 96-well plate at 50 μL per well according to the instructions. […]

## O=[N+]([O-])c1ccc(O)c2nccc(C3CCCCC3)c12 [Example 25, 4-cyclohexyl-5-nitroquinolin-8-ol]
Escherichia coli
  MIC50: 32 µg/mL (≈ 118 µM)
  MIC90: 32 µg/mL (≈ 118 µM)
  MIC: 32 µg/mL (≈ 118 µM)
Staphylococcus aureus
  MIC50: 4 µg/mL (≈ 14.7 µM)
  MIC90: 4 µg/mL (≈ 14.7 µM)
  MIC: 4 µg/mL (≈ 14.7 µM)
Acinetobacter baumannii
  MIC50: 32 µg/mL (≈ 118 µM)
  MIC90: 32 µg/mL (≈ 118 µM)
  MIC: 32 µg/mL (≈ 118 µM)

## CC(C)c1cc(O)c2ncccc2c1[N+](=O)[O-] [Example 33, 8-hydroxy-6-isopropyl-5-nitroquinoline]
Escherichia coli
  MIC50: 32 µg/mL (≈ 138 µM)
  MIC90: 32 µg/mL (≈ 138 µM)
Staphylococcus aureus
  MIC50: 4 µg/mL (≈ 17.2 µM)
  MIC90: 4 µg/mL (≈ 17.2 µM)
Acinetobacter baumannii
  MIC50: 32 µg/mL (≈ 138 µM)
  MIC90: 64 µg/mL (≈ 276 µM)

## O=[N+]([O-])c1c(C2CC2)cc(O)c2ncccc12 [Example 34, 8-hydroxy-6-cyclopropyl-5-nitroquinoline]
Escherichia coli
  MIC50: 16 µg/mL (≈ 69.5 µM)
  MIC90: 16 µg/mL (≈ 69.5 µM)
Staphylococcus aureus
  MIC50: 4 µg/mL (≈ 17.4 µM)
  MIC90: 4 µg/mL (≈ 17.4 µM)
Acinetobacter baumannii
  MIC50: 8 µg/mL (≈ 34.7 µM)
  MIC90: 32 µg/mL (≈ 139 µM)

## O=[N+]([O-])c1ccc(O)c2nccc(N3CCCCC3)c12 [Example 6, 5-nitro-4-(piperidin-1-yl)quinolin-8-ol]
[1]
  IC50: 7 µM

## CCN(CC)C(=O)c1cnc2c(O)ccc([N+](=O)[O-])c2c1 [Example 40, N,N-diethyl-8-hydroxy-5-nitroquinoline-3-carboxamide]
Escherichia coli
  MIC50: 8 µg/mL (≈ 27.7 µM)
  MIC90: 8 µg/mL (≈ 27.7 µM)
  MIC: 8 µg/mL (≈ 27.7 µM)
Staphylococcus aureus
  MIC50: 64 µg/mL (≈ 221 µM)
  MIC90: 64 µg/mL (≈ 221 µM)
  MIC: 32 µg/mL (≈ 111 µM)

## O=[N+]([O-])c1cc(F)c(O)c2ncccc12 [Example 1, 7-fluoro-5-nitroquinolin-8-ol]
Escherichia coli
  MIC50: 4 µg/mL (≈ 19.2 µM)
  MIC90: 8 µg/mL (≈ 38.4 µM)
  MIC: 8 µg/mL (≈ 38.4 µM)
Staphylococcus aureus
  MIC50: 4 µg/mL (≈ 19.2 µM)
  MIC90: 4 µg/mL (≈ 19.2 µM)
Acinetobacter baumannii
  MIC50: 8 µg/mL (≈ 38.4 µM)
  MIC90: 16 µg/mL (≈ 76.9 µM)

## N#Cc1ccnc2c(O)ccc([N+](=O)[O-])c12 [Example 27, 4-cyano-5-nitroquinolin-8-ol]
Escherichia coli
  MIC50: 16 µg/mL (≈ 74.4 µM)
  MIC90: 32 µg/mL (≈ 149 µM)
  MIC: 16 µg/mL (≈ 74.4 µM)
Staphylococcus aureus
  MIC50: 16 µg/mL (≈ 74.4 µM)
  MIC90: 16 µg/mL (≈ 74.4 µM)
  MIC: 16 µg/mL (≈ 74.4 µM)
Acinetobacter baumannii
  MIC50: 32 µg/mL (≈ 149 µM)
  MIC90: 32 µg/mL (≈ 149 µM)
  MIC: 16 µg/mL (≈ 74.4 µM)

## O=C(OCC1CC1)c1cnc2c(O)ccc([N+](=O)[O-])c2c1 [Example 39, cyclopropylmethyl 8-hydroxy-5-nitroquinoline-3-carboxylate]
Escherichia coli
  MIC50: 64 µg/mL (≈ 222 µM)
  MIC90: 64 µg/mL (≈ 222 µM)
  MIC: 64 µg/mL (≈ 222 µM)
Staphylococcus aureus
  MIC50: 1 µg/mL (≈ 3.47 µM)
  MIC90: 1 µg/mL (≈ 3.47 µM)
  MIC: 2 µg/mL (≈ 6.94 µM)

## CCOC(=O)c1cnc2c(O)ccc([N+](=O)[O-])c2c1 [Example 32, ethyl 8-hydroxy-5-nitroquinoline-3-carboxylate]
Escherichia coli
  MIC50: 64 µg/mL (≈ 244 µM)
  MIC90: 128 µg/mL (≈ 488 µM)
  MIC: 64 µg/mL (≈ 244 µM)
Staphylococcus aureus
  MIC50: 2 µg/mL (≈ 7.63 µM)
  MIC90: 4 µg/mL (≈ 15.3 µM)
  MIC: 4 µg/mL (≈ 15.3 µM)
Acinetobacter baumannii
  MIC50: 64 µg/mL (≈ 244 µM)
  MIC90: 128 µg/mL (≈ 488 µM)
  MIC: 32 µg/mL (≈ 122 µM)

## O=[N+]([O-])c1ccc(O)c2nccc(C(F)(F)F)c12 [Example 26, 5-nitro-4-trifluoromethylquinolin-8-ol]
Escherichia coli
  MIC50: 8 µg/mL (≈ 31 µM)
  MIC90: 16 µg/mL (≈ 62 µM)
  MIC: 8 µg/mL (≈ 31 µM)
Staphylococcus aureus
  MIC50: 2 µg/mL (≈ 7.75 µM)
  MIC90: 2 µg/mL (≈ 7.75 µM)
  MIC: 2 µg/mL (≈ 7.75 µM)
Acinetobacter baumannii
  MIC50: 8 µg/mL (≈ 31 µM)
  MIC90: 8 µg/mL (≈ 31 µM)
  MIC: 8 µg/mL (≈ 31 µM)

## O=C(OC1CCCCC1)c1cnc2c(O)ccc([N+](=O)[O-])c2c1 [Example 43, cyclohexyl 8-hydroxy-5-nitroquinoline-3-carboxylate]
Escherichia coli
  MIC50: 128 µg/mL (≈ 405 µM)
  MIC90: 128 µg/mL (≈ 405 µM)
  MIC: 128 µg/mL (≈ 405 µM)
Staphylococcus aureus
  MIC50: 2 µg/mL (≈ 6.32 µM)
  MIC90: 2 µg/mL (≈ 6.32 µM)
  MIC: 4 µg/mL (≈ 12.6 µM)
Acinetobacter baumannii
  MIC50: 128 µg/mL (≈ 405 µM)
  MIC90: 128 µg/mL (≈ 405 µM)
  MIC: 128 µg/mL (≈ 405 µM)

## O=[N+]([O-])c1c(F)cc(O)c2ncccc12 [Example 42, 8-hydroxy-6-fluoro-5-nitroquinoline]
Escherichia coli
  MIC50: 64 µg/mL (≈ 307 µM)
  MIC90: 64 µg/mL (≈ 307 µM)
  MIC: 64 µg/mL (≈ 307 µM)
Staphylococcus aureus
  MIC50: 64 µg/mL (≈ 307 µM)
  MIC90: 64 µg/mL (≈ 307 µM)
  MIC: 64 µg/mL (≈ 307 µM)
